Measurements reported in US11344009B2, “All sterile males of culicine mosquitoes: a method of creation” (priority 2014, dated 2022).

Legend:
[1] = tested on: Ae. aegypti strain (Hanoi1); assay: Transient expression of long dsmRNA Tra-2 RNAi construct (AaKLC2.1-long-02) injected into embryos; female lethality induced by different Dox concentrations; assay type: in vivo, Aedes aegypti; conditions: for Hatched rate (hatched/injected embryos): 500 embryos injected with AaKLC2.1-long-02
Excerpt: In this example, we show the transient expression of a Tra-2 RNAi construct which created long dsmRNAs. The detail method to create this construct was described in Example 4. The promoter driving rtTA protein was AaKLC2.1. In the presence of doxycycline (Dox), Tet-On Advanced binds to the tetracycline response element in pTre-tight, and produces high-level tran-scription of the downstream gene. Ae. aegypti strain (Hanoi1) was fed on blood containing three different Dox concentrations to produce eggs containing different Dox doses (mg/litre). The construct named AaKLC2.1-long-02 after Maxiprep purification was diluted in 1^x injection buffer at 1.6 μg/μl. Embryos were desiccated briefly in 50 sec and stuck into a plastic cover slip via a piece of double sticky tape. The Voltalef oil was used to cover the embryos. After injection, the cover slip was then immediately transferred into a cover slip staining rack which was kept in a sealed plastic box with 100% humidity at 27° C. for 3-4 days and then hatched in Dox deoxygenated water. 500 embryos were injected in each Dox concentration. Larvae were reared under standard conditions. Three different Dox concentrations which were equivalent to the concentrations in blood meals were added to the rearing water. The sex ratio among survivors of each Dox concentration were shown in the below table.

[2] = tested on: wMel Wolbachia in Ae. albopictus strains (Hanoi 1 and Laos2); assay: Dox challenge of Wolbachia trans-infected lines, PCR re-test for presence of Wolbachia (wsp primers 81F/691R); assay type: in vivo, Aedes albopictus; conditions: for Pupae (number from 50 3rd-4th larvae on Dox) / 3 day old adult (on Dox), number: Dox 30 mg/L; for 3 day old adult (on Dox), number: 4-5 days from third larvae to 3 day old adults; for 81F/691R PCR test, number with Wolbachia / 81F/691R PCR test, share with Wolbachia: after Dox 30 mg/L challenge
Protocol: Ae. albopictus strains (Hanoi 1 and Laos2) were trans-infected with Wolbachia from a Drosophila line (Oregon-R). This fly carries wMel Wolbachia. Drosophila embryos were collected as mentioned above. 1-2 day old virgin females were anaesthetized and microinjected directly in the thorax. […] These lines were maintained at a standard condition and challenged with the presence of Dox (30 mg/L) in 4-5 days from the third larvae to 3 day old adults. They were PCR re-tested for the presence of Wolbachia after the challenge using universal wsp primers 81F and 691R^38.

[3] = tested on: Ae. aegypti strain Hanoi1 transformed with Tra-2 RNAi (long dsmRNA) construct; assay: Outcross of Dox-induced homozygous Tra-2 RNAi transgenic males with wild type virgin females, sex ratio of the crosses; assay type: in vivo, Aedes aegypti
Protocol: (§1) The Ae. aegypti strain named Hanoi1 was transformed with a Tra-2 RNAi (long dsmRNA) construct. This construct was assembled with rtTA(pTet-on advanced) and pTre-tight regulatory system as mentioned in Example 1. The strain was challenged with Dox three different concentrations (0.3 mg/L; 3 mg/L and 30 mg/L) between the third larvae stage and 3 day old adult. The males from each Dox concentration challenge were divided into two groups; one group was Q-PCR to reveal the knockdown level of Tra-2. The other group was outcrossed with wild type females. Total RNA from Hanoi 1 wild type males and Tra-2 RNAi/Hanoi 1 transgenic males were isolated in pools of 5 males in 3 biological replicates. The primers used for Actin5C (endogenous reference gene) were F: (5′-[…]-3′) (SEQ ID NO: 53) and R: (5′-[…]-3′) (SEQ ID NO: 54) which produced a 125 bp fragment. Primers used for amplifying Tra-2, which produced a 125 bp fragment nearby the Tra-2 RNAi target site, were: Forward: (5′ […] 3′) (SEQ ID NO: 55) and Reverse: (5′ […] 3′) (SEQ ID NO: 56). Three biological replicates were carried out in each Dox condition. The knockdown of expression levels were calculated by the relative standard curve method (Applied Biosystems), in which Act5C as an endogenous reference and wild type Hanoi 1 as an exogenous calibrator. PCR cycle was 95° C. for 15 mins; 45 cycles of 10 sec at 95° C., 10 sec at XC, 20 sec at 72° C., plate reading. X is annealing temperature, of which 59° C. for the reference gene Actin5C and 55° C. was used for Tra-2 primers. […] 0.3 mg/L caused a slight difference in comparison with wild type (96.98% wild type). […] See details in FIG. 2.
10 homozygous males (3 day old) from each concentration were crossed with 10 wild type virgin females.

Tra-2 = assay: Q-PCR of Tra-2 knockdown level in Tra-2 RNAi/Tet-on transgenic males induced by Dox; assay type: in vivo, Aedes aegypti
Protocol: as §1

`C[C@H]1c2cccc(O)c2C(=O)C2=C(O)[C@]3(O)C(=O)C(C(N)=O)=C(O)[C@@H](N(C)C)[C@@H]3[C@@H](O)[C@@H]21` [Dox, Doxycycline] was tested, and the Hatched rate ([1]; 0.3 mg of Dox/L) was “(24.4) %”, the “Hatched rate (hatched/injected embryos)” value ([1]; 0.3 mg of Dox/L) was 122/500 and the Hatched rate ([1]; 3 mg of Dox/L) was “(18.6) %”. For the same compound, the “Hatched rate (hatched/injected embryos)” value ([1]; 3 mg of Dox/L) was 93/500, the Hatched rate ([1]; 30 mg of Dox/L) was “(14.8) %” and the “Hatched rate (hatched/injected embryos)” value ([1]; 30 mg of Dox/L) was 74/500. The “Pupae (number from 50 3rd-4th larvae on Dox)” value ([2]; wMel/Ae.albopictus Hanoi 1) was 50, the “3 day old adult (on Dox), number” value ([2]; wMel/Ae.albopictus Hanoi 1) was 49 and the “81F/691R PCR test, number with Wolbachia” value ([2]; wMel/Ae.albopictus Hanoi 1) was 49. The “81F/691R PCR test, share with Wolbachia” value ([2]; wMel/Ae.albopictus Hanoi 1) was 100%, the “Pupae (number from 50 3rd-4th larvae on Dox)” value ([2]; wMel/Ae.albopictus Laos2) was 50 and the “3 day old adult (on Dox), number” value ([2]; wMel/Ae.albopictus Laos2) was 50. For the same compound, the “81F/691R PCR test, number with Wolbachia” value ([2]; wMel/Ae.albopictus Laos2) was 50, the “81F/691R PCR test, share with Wolbachia” value ([2]; wMel/Ae.albopictus Laos2) was 100% and the “Hatch rate (value in brackets)” value ([3]; males induced at 0.3 mg/L Dox) was 95.40. The “Male ratio (value in brackets)” value ([3]; males induced at 0.3 mg/L Dox) was 51.53, the “Hatch rate (value in brackets)” value ([3]; males induced at 3 mg/L Dox) was 90.60 and the “Male ratio (value in brackets)” value ([3]; males induced at 3 mg/L Dox) was 64.88. For the same compound, the “Hatch rate (value in brackets)” value ([3]; males induced at 30 mg/L Dox) was 91.60, the “Male ratio (value in brackets)” value ([3]; males induced at 30 mg/L Dox) was 93.47 and the “Expression level of Tra-2 in males” value (Tra-2; Dox 0.3 mg/L, third larvae stage to 3 day old adult) was 96.98 % wild type. For the same compound, the “Expression level of Tra-2 in males” value (Tra-2; Dox 3 mg/L, third larvae stage to 3 day old adult) was 73.7 % wild type and the “Expression level of Tra-2 in males” value (Tra-2; Dox 30 mg/L, after 5 days treatment) was 33.26 % wild type.
